Test results as given in US20170037007A1, “SUBSTITUTED N-(2-(AMINO)-2OXOETHYL)BENZAMIDE INHIBITORS OF AUTOTAXIN AND THEIR PREPARATION AND USE IN THE TREATMENT OF LPA-DEPENDENT OR LPA-MEDIATED DISEASES” (X-Rx, Inc., priority 2014, published 2017).

target: T1, Autotaxin (Homo sapiens, UniProt Q13822); assay: Autotaxin LPC Cascade Assay; assay type: biochemical; conditions: 5 nM autotaxin, 100 μM LPC, choline oxidase/HRP/Ampliflu Red fluorescence readout; read-out: IC50 ATX activity values, IC50
T1 construct: purchased X-Chem
Method: Autotaxin LPC Cascade Assay
HA130 and Test Compounds:
Highest final concentration is […] for HA130 (Echelon, B-0701) and 30 μM for test compounds. Prepare a 1 mM stock of HA130 and a 3 mM stock of each compound in 100% DMSO. Perform a 1:3 serial dilution in DMSO (transfer 5 μl of compound to 10 μl of DMSO). Add 240 μl of buffer to generate a top working concentration of 40 µM (HA130) and 120 µM (test compound) in 4% DMSO.
Ampliflu Red—Prepare a stock of 5 mM from 100 mM in 100% DMSO. Further dilute to a working concentration of 400 μM in buffer (8% DMSO).
Together with compound this yields a 2% DMSO final concentration.
Choline Oxidase/HRP—0.8 U/ml CO and 8 U/ml HRP.
Add 5 μl of ATX and 5 μl of compound in a 384 well plate (Corning 3676). Incubate for 10 mins at RT. Add 5 μl of LPC and incubate for 1 hr on the plate shaker. Prepare the CO/HRP and AR prior to use. Add 2.5 μl of CO/HRP and follow with 2.5 μl AR. Note order of addition, CO/HRP mix before AR. Read fluorescence intensity (λex/λem: 530/590 nm) kinetically for 30 min at RT on the Tecan M1000.

SMILES	IC50 [nM]
Cc1cccc(C(=O)N[C@@H](C(=O)N2CCC(C)(Nc3ccc(C#N)cc3)CC2)C(C)C)c1F [Example 1, (R)—N-(1-(4-(4-Cyanophenylamino)-4-methylpiperidin-1-yl)-3-methyl-1-oxobutan-2-yl)-2-fluoro-3-methylbenzamide]	500 to 5000
Cc1cccc(C(=O)N[C@@H](C(=O)N2CCC(C)(Nc3cccc(C#N)c3)CC2)C(C)C)c1F [Example 2, (R)—N-(1-(4-(3-Cyanophenylamino)-4-methylpiperidin-1-yl)-3-methyl-1-oxobutan-2-yl)-2-fluoro-3-methylbenzamide]	5000 to 10000
Cc1cccc(C(=O)N[C@@H](C(=O)N2CCC(C)(Nc3ccc(S(C)(=O)=O)cc3)CC2)C(C)C)c1F [Example 3, (R)-2-Fluoro-3-methyl-N-(3-methyl-1-(4-methyl-4-(4-(methylsulfonyl)phenylamino)piperidin-1-yl)-1-oxobutan-2-yl)benzamide]	500 to 5000
CNC(=O)C1(Oc2ccccc2)CCN(C(=O)[C@H](NC(=O)c2cccc(C)c2F)C(C)C)CC1 [Example 14, (R)-1-(2-(2-Fluoro-3-methylbenzamido)-3-methylbutanoyl)-N-methyl-4-phenoxypiperidine-4-carboxamide]	500 to 5000
CCc1ccc(F)c(C(=O)N[C@@H](C(=O)N2CCC(Oc3ccc(S(C)(=O)=O)cc3)(C(=O)NC)CC2)C(C)C)c1 [Example 15, (R)-1-(2-(5-Ethyl-2-fluorobenzamido)-3-methylbutanoyl)-N-methyl-4-(4-(methylsulfonyl)phenoxy)piperidine-4-carboxamide]	500 to 5000
CCc1ccc(F)c(C(=O)N[C@@H](C(=O)N2CCC(Oc3ccc(S(C)(=O)=O)cc3)(C(=O)N(C)C)CC2)C(C)C)c1 [Example 16, (R)-1-(2-(5-Ethyl-2-fluorobenzamido)-3-methylbutanoyl)-N,N-dimethyl-4-(4-(methylsulfonyl)phenoxy)piperidine-4-carboxamide]	500 to 5000
COCC1(Nc2ccccc2)CCN(C(=O)[C@H](NC(=O)c2cccc(C)c2)C(C)C)CC1 [Example 17, (R)—N-(1-(4-(Methoxymethyl)-4-(phenylamino)piperidin-1-yl)-3-methyl-1-oxobutan-2-yl)-3-methylbenzamide]	≥ 10000
CCc1ccc(F)c(C(=O)N[C@@H](C(=O)N2CCC(C#N)(Nc3ccc(S(C)(=O)=O)cc3)CC2)C(C)C)c1 [Example 18, (R)—N-(1-(4-Cyano-4-(4-(methylsulfonyl)phenylamino)piperidin-1-yl)-3-methyl-1-oxobutan-2-yl)-5-ethyl-2-fluorobenzamide]	500 to 5000
CC(=O)Nc1ccc(N(C)C2(C)CCN(C(=O)[C@H](NC(=O)c3cc(C(F)(F)F)ccc3F)C(C)C)CC2)cc1 [Example 19, (R)—N-(1-(4-(4-Acetamidophenyl(methyl)amino)-4-methylpiperidin-1-yl)-3-methyl-1-oxobutan-2-yl)-2-fluoro-5-(trifluoromethyl)benzamide]	100 to 500
Cc1cccc(C(=O)N[C@@H](C(=O)N2CCC(C)(N(C)c3ccccc3)CC2)C(C)C)c1 [Example 20, (R)-3-Methyl-N-(3-methyl-1-(4-methyl-4-(methyl(phenyl)amino)piperidin-1-yl)-1-oxobutan-2-yl)benzamide]	500 to 5000
CC(C)[C@@H](NC(=O)c1cc(C(F)(F)F)ccc1F)C(=O)N1CCC(Nc2ccc(S(C)(=O)=O)cc2)CC1 [Example 22, (R)-2-Fluoro-N-(3-methyl-1-(4-(4-(methylsulfonyl)phenylamino)piperidin-1-yl)-1-oxobutan-2-yl)-5-(trifluoromethyl)benzamide]	≥ 10000
CC(C)[C@@H](NC(=O)c1cc(C(F)(F)F)ccc1F)C(=O)N1CCC(Nc2ccc3[nH]ncc3c2)CC1 [Example 23, (R)—N-(1-(4-(1H-Indazol-5-ylamino)piperidin-1-yl)-3-methyl-1-oxobutan-2-yl)-2-fluoro-5-(trifluoromethyl)benzamide]	5000 to 10000
CC1CCc2cc(F)c(C(=O)N[C@@H](C(=O)N3CCC(C)(Nc4ccc(S(C)(=O)=O)cc4)CC3)C(C)C)cc21 (stereo partly drawn) [Example 25, 6-Fluoro-3-methyl-N—((R)-3-methyl-1-(4-methyl-4-(4-(methylsulfonyl)phenylamino)piperidin-1-yl)-1-oxobutan-2-yl)-2,3-dihydro-1H-indene-5-carboxamide]	100 to 500

Further lines, results first:

IC50 [nM]	SMILES
10 to 100	CCc1ccc(F)c(C(=O)N[C@@H](C(=O)N2CCC(C)(Nc3ccc(S(C)(=O)=O)cc3)CC2)C(C)C)c1 [Example 4, (R)-5-Ethyl-2-fluoro-N-(3-methyl-1-(4-methyl-4-(4-(methylsulfonyl)phenylamino)piperidin-1-yl)-1-oxobutan-2-yl)benzamide]
500 to 5000	COc1ccc(F)c(C(=O)N[C@@H](C(=O)N2CCC(C)(Nc3ccc(S(C)(=O)=O)cc3)CC2)C(C)C)c1 [Example 5, (R)-2-Fluoro-5-methoxy-N-(3-methyl-1-(4-methyl-4-(4-(methylsulfonyl)phenylamino)piperidin-1-yl)-1-oxobutan-2-yl)benzamide]
10 to 100	CC(C)[C@@H](NC(=O)c1cc(OC(F)(F)F)ccc1F)C(=O)N1CCC(C)(Nc2ccc(S(C)(=O)=O)cc2)CC1 [Example 6, (R)-2-Fluoro-N-(3-methyl-1-(4-methyl-4-(4-(methylsulfonyl)phenylamino)piperidin-1-yl)-1-oxobutan-2-yl)-5-(trifluoromethoxy)benzamide]
500 to 5000	CC(C)[C@@H](NC(=O)c1cccc(OC(F)(F)F)c1)C(=O)N1CCC(C)(Nc2ccccc2)CC1 [Example 7, (R)—N-(3-Methyl-1-(4-methyl-4-(phenylamino)piperidin-1-yl)-1-oxobutan-2-yl)-3-(trifluoromethoxy)benzamide]
100 to 500	COc1ccc(NC2(C)CCN(C(=O)[C@H](NC(=O)c3cccc(OC(F)(F)F)c3)C(C)C)CC2)cc1 [Example 8, (R)—N-(1-(4-((4-Methoxyphenyl)amino)-4-methylpiperidin-1-yl)-3-methyl-1-oxobutan-2-yl)-3-(trifluoromethoxy)benzamide]
100 to 500	CC(C)[C@@H](NC(=O)c1cccc(OC(F)(F)F)c1)C(=O)N1CCC(C)(Nc2ccc(C(=O)O)cc2)CC1 [Example 9, (R)-4-((4-Methyl-1-(3-methyl-2-(3-(trifluoromethoxy)benzamido)butanoyl)piperidin-4-yl)amino)benzoic acid]
100 to 500	CC(C)[C@@H](NC(=O)c1cc(OC(F)(F)F)ccc1F)C(=O)N1CCC(C)(Nc2ccccc2)CC1 [Example 10, (R)-2-Fluoro-N-(3-methyl-1-(4-methyl-4-(phenylamino)piperidin-1-yl)-1-oxobutan-2-yl)-5-(trifluoromethoxy)benzamide]
100 to 500	CC(C)[C@@H](NC(=O)c1cc(OC(F)(F)F)ccc1F)C(=O)N1CCC(C)(Nc2ccc(C(=O)O)cc2)CC1 [Example 11, (R)-4-((1-(2-(2-Fluoro-5-(trifluoromethoxy)benzamido)-3-methylbutanoyl)-4-methylpiperidin-4-yl)amino)benzoic acic]
100 to 500	COc1ccc(NC2(C)CCN(C(=O)[C@H](NC(=O)c3cc(OC(F)(F)F)ccc3F)C(C)C)CC2)cc1 [Example 12, (R)-2-Fluoro-N-(1-(4-((4-methoxyphenyl)amino)-4-methylpiperidin-1-yl)-3-methyl-1-oxobutan-2-yl)-5-(trifluoromethoxy)benzamide]
100 to 500	CC1(Nc2ccc(S(C)(=O)=O)cc2)CCN(C(=O)[C@H](NC(=O)c2cc(OC(F)(F)F)ccc2F)C2CC2)CC1 [Example 13, (R)—N-(1-Cyclopropyl-2-(4-methyl-4-((4-(methylsulfonyl)phenyl)amino)piperidin-1-yl)-2-oxoethyl)-2-fluoro-5-(trifluoromethoxy)benzamide]
100 to 500	CC(C)[C@@H](NC(=O)c1cc(C(F)(F)F)ccc1F)C(=O)N1CCC(C)(Nc2ccc(C(=O)O)cc2)CC1 [Example 21, (R)-4-(1-(2-(2-Fluoro-5-(trifluoromethyl)benzamido)-3-methylbutanoyl)-4-methylpiperidin-4-ylamino)benzoic acid]
≥ 10000	CC(C)[C@@H](NC(=O)c1cc(C(F)(F)F)ccc1F)C(=O)N1CCC(Nc2ccc(C(=O)O)cc2)CC1 [Example 24, (R)-4-(1-(2-(2-Fluoro-5-(trifluoromethyl)benzamido)-3-methylbutanoyl)piperidin-4-ylamino)benzoic acid]
10 to 100	CCc1ccc(F)c(C(=O)N[C@@H](C(=O)N2CCC(C)(Nc3ccc(CS(C)(=O)=O)cc3)CC2)C(C)C)c1 [Example 26, (R)-5-Ethyl-2-fluoro-N-(3-methyl-1-(4-methyl-4-(4-(methylsulfonylmethyl)phenylamino)piperidin-1-yl)-1-oxobutan-2-yl)benzamide]
100 to 500	CC(C)[C@@H](NC(=O)c1cc(C(F)(F)F)ccc1F)C(=O)N1CCC(C)(Nc2ccc(S(C)(=O)=O)cc2)CC1 [Example 27, (R)-2-Fluoro-N-(3-methyl-1-(4-methyl-4-(4-(methylsulfonyl)phenylamino)piperidin-1-yl)-1-oxobutan-2-yl)-5-(trifluoromethyl)benzamide]
100 to 500	CC(C)[C@@H](NC(=O)c1cc(OC(F)F)ccc1F)C(=O)N1CCC(C)(Nc2ccc(S(C)(=O)=O)cc2)CC1 [Example 28, (R)-5-(Difluoromethoxy)-2-fluoro-N-(3-methyl-1-(4-methyl-4-(4-(methylsulfonyl)phenylamino)piperidin-1-yl)-1-oxobutan-2-yl)benzamide]
